Measurements from US5407932A, “Quinolone derivatives and antibacterial agents containing the same” (Wakunaga Seiyaku Kabushiki Kaisha, priority 1989, dated 1995).
Converted amounts (≈) assume the structure as drawn.

Key:
Test in all cases: Minimum inhibitory concentration, standard method of the Japan Society of Chemotherapy
Type in all cases: cell-based
[1] = system: E. coli NIH JC-2 (IFO 12734); conditions: Escherichia coli, IFO12734
Method: (§1) With respect to certain representative compounds among the compounds [I] of the present invention, their minimum inhibitory concentrations (MIC; μg/ml) were measured in accordance with the standard method established by the Japan Society of Chemotherapy [CHEMOTHERAPY, 29(1), 76-79 (1981)]. The results are summarized in Table 1, in which the compound numbers are as shown in examples.

P. aeruginosa (IFO 3445) = conditions: Pseudomonas aeruginosa, IFO3445
Method: as §1

[2] = system: S. aureus 209 P (IFO 12732); conditions: Staphylococcus aureus, IFO12732
Method: as §1

| SMILES | MIC [1] | MIC (P. aeruginosa (IFO 3445)) | MIC [2] |
| --- | --- | --- | --- |
| CO[C@@H]1CN(c2c(F)cc3c(=O)c(C(=O)O)cn(C4COC4)c3c2F)C[C@H]1N (relative stereo) [Compound 85] | 1.56 µg/mL (≈ 3.95 µM) | 6.25 µg/mL (≈ 15.8 µM) | 3.13 µg/mL (≈ 7.92 µM) |
| CO[C@@H]1CN(c2c(F)c(N)c3c(=O)c(C(=O)O)cn(C4COC4)c3c2F)C[C@H]1N (relative stereo) [Compound 86] | 0.39 µg/mL (≈ 0.95 µM) | 3.13 µg/mL (≈ 7.63 µM) | 1.56 µg/mL (≈ 3.8 µM) |
| CO[C@@H]1CN(c2nc3c(cc2F)c(=O)c(C(=O)O)cn3C2COC2)C[C@H]1N (relative stereo) [Compound 88] | 0.78 µg/mL (≈ 2.06 µM) | 3.13 µg/mL (≈ 8.27 µM) | 6.25 µg/mL (≈ 16.5 µM) |
| CO[C@H]1CN(c2c(F)cc3c(=O)c(C(=O)O)cn(C4COC4)c3c2F)C[C@H]1N (relative stereo) [Compound 89] | 0.78 µg/mL (≈ 1.97 µM) | 3.13 µg/mL (≈ 7.92 µM) | 1.56 µg/mL (≈ 3.95 µM) |
| CN[C@@H]1CN(c2c(F)cc3c(=O)c(C(=O)O)cn(C4COC4)c3c2F)C[C@H]1C (relative stereo) [Compound 91] | 0.2 µg/mL (≈ 0.508 µM) | 1.56 µg/mL (≈ 3.97 µM) | 0.78 µg/mL (≈ 1.98 µM) |
| CN[C@@H]1CN(c2c(F)c(N)c3c(=O)c(C(=O)O)cn(C4COC4)c3c2F)C[C@H]1C (relative stereo) [Compound 92] | 0.1 µg/mL (≈ 0.245 µM) | 1.56 µg/mL (≈ 3.82 µM) | 0.39 µg/mL (≈ 0.955 µM) |
| CN[C@@H]1CN(c2c(F)cc3c(=O)c(C(=O)O)cn(C4COC4)c3c2F)C[C@@H]1C (relative stereo) [Compound 93] | 0.78 µg/mL (≈ 1.98 µM) | 3.13 µg/mL (≈ 7.96 µM) | 1.56 µg/mL (≈ 3.97 µM) |
| CN[C@@H]1CN(c2c(F)c(N)c3c(=O)c(C(=O)O)cn(C4COC4)c3c2F)C[C@@H]1C (relative stereo) [Compound 94] | 0.2 µg/mL (≈ 0.49 µM) | 1.56 µg/mL (≈ 3.82 µM) | 0.78 µg/mL (≈ 1.91 µM) |
| C[C@@H]1CN(c2c(F)cc3c(=O)c(C(=O)O)cn(C4COC4)c3c2F)C[C@H]1N.O=C(O)C(F)(F)F (relative stereo) [Compound 97, 7-(Trans-3-amino-4-methylpyrrolidin-1-yl)-6,8-difluoro-1-(oxetan-3-yl)-1,4-dihydro-4-oxoquinoline-3-carboxylic acid trifluoroacetic acid salt] | 0.39 µg/mL | 1.56 µg/mL | 0.78 µg/mL |
| C[C@@H]1CN(c2c(F)c(N)c3c(=O)c(C(=O)O)cn(C4COC4)c3c2F)C[C@H]1N (relative stereo) [Compound 101] | 0.1 µg/mL (≈ 0.254 µM) | 0.78 µg/mL (≈ 1.98 µM) | 0.2 µg/mL (≈ 0.507 µM) |
| C[C@H]1CN(c2c(F)cc3c(=O)c(C(=O)O)cn(C4COC4)c3c2F)C[C@H]1N (relative stereo) [Compound 102] | 0.1 µg/mL (≈ 0.264 µM) | 0.78 µg/mL (≈ 2.06 µM) | 0.39 µg/mL (≈ 1.03 µM) |
| C[C@H]1CN(c2c(F)c(N)c3c(=O)c(C(=O)O)cn(C4COC4)c3c2F)C[C@H]1N (relative stereo) [Compound 103] | 0.1 µg/mL (≈ 0.254 µM) | 0.39 µg/mL (≈ 0.989 µM) | 0.2 µg/mL (≈ 0.507 µM) |
| O=C(O)c1cn(C2COC2)c2c(F)c(N3CCCC3)c(F)cc2c1=O [Compound 4, 6,8-Difluoro-1-(oxetan-3-yl)-7-(pyrrolidin-1-yl)-1,4-dihydro-4-oxoquinoline-3-carboxylic acid] | 0.39 µg/mL (≈ 1.11 µM) | 1.56 µg/mL (≈ 4.45 µM) | 0.2 µg/mL (≈ 0.571 µM) |
| O=C(O)c1cn(C2COC2)c2c(F)c(N3CC=CC3)c(F)cc2c1=O [Compound 5] | 0.39 µg/mL (≈ 1.12 µM) | 6.25 µg/mL (≈ 17.9 µM) | 0.39 µg/mL (≈ 1.12 µM) |
| O=C(O)c1cn(C2COC2)c2c(F)c(N3CCOCC3)c(F)cc2c1=O [Compound 6] | 0.78 µg/mL (≈ 2.13 µM) | 6.25 µg/mL (≈ 17.1 µM) | 0.78 µg/mL (≈ 2.13 µM) |
| O=C(O)c1cn(C2COC2)c2c(F)c(N3CCSCC3)c(F)cc2c1=O [Compound 7] | 0.78 µg/mL (≈ 2.04 µM) | 3.13 µg/mL (≈ 8.19 µM) | 0.39 µg/mL (≈ 1.02 µM) |
| O=C(O)c1cn(C2COC2)c2c(F)c(N3Cc4ccccc4C3)c(F)cc2c1=O [Compound 9] | 0.39 µg/mL (≈ 0.979 µM) | 3.13 µg/mL (≈ 7.86 µM) | 0.2 µg/mL (≈ 0.502 µM) |
| CN1CCN(c2c(F)cc3c(=O)c(C(=O)O)cn(C4COC4)c3c2F)CC1 [Compound 11] | 0.2 µg/mL (≈ 0.527 µM) | 1.56 µg/mL (≈ 4.11 µM) | 1.56 µg/mL (≈ 4.11 µM) |
| O=C(O)c1cn(C2COC2)c2c(F)c(N3CCNCC3)c(F)cc2c1=O [Compound 12] | 0.2 µg/mL (≈ 0.547 µM) | 1.56 µg/mL (≈ 4.27 µM) | 1.56 µg/mL (≈ 4.27 µM) |
| CC1CN(c2c(F)cc3c(=O)c(C(=O)O)cn(C4COC4)c3c2F)CCN1 (stereo not drawn) [Compound 13] | 0.2 µg/mL (≈ 0.527 µM) | 1.56 µg/mL (≈ 4.11 µM) | 1.56 µg/mL (≈ 4.11 µM) |
| CC1CN(c2c(F)cc3c(=O)c(C(=O)O)cn(C4COC4)c3c2F)CC(C)N1 (stereo not drawn) [Compound 14] | 0.2 µg/mL (≈ 0.508 µM) | 3.13 µg/mL (≈ 7.96 µM) | 3.13 µg/mL (≈ 7.96 µM) |
| O=C(O)c1cn(C2COC2)c2c(F)c(N3CCC(O)CC3)c(F)cc2c1=O [Compound 15] | 0.78 µg/mL (≈ 2.05 µM) | 6.25 µg/mL (≈ 16.4 µM) | 0.39 µg/mL (≈ 1.03 µM) |
| O=C(O)c1cn(C2COC2)c2c(F)c(N3CCC(O)C3)c(F)cc2c1=O (stereo not drawn) [Compound 16] | 0.39 µg/mL (≈ 1.06 µM) | 1.56 µg/mL (≈ 4.26 µM) | 0.78 µg/mL (≈ 2.13 µM) |
| O=C(O)c1cn(C2COC2)c2c(F)c(N3CC(O)C3)c(F)cc2c1=O [Compound 17] | 0.78 µg/mL (≈ 2.21 µM) | 6.25 µg/mL (≈ 17.7 µM) | 3.13 µg/mL (≈ 8.88 µM) |
| NC1CCN(c2c(F)cc3c(=O)c(C(=O)O)cn(C4COC4)c3c2F)C1 (stereo not drawn) [Compound 18] | 0.39 µg/mL (≈ 1.07 µM) | 1.56 µg/mL (≈ 4.27 µM) | 1.56 µg/mL (≈ 4.27 µM) |
